Experimental data as given in US20210052529A1, “PHARMACEUTICAL COMPOSITIONS COMPRISING DICARBOXYLIC ACIDS AND THEIR THERAPEUTIC APPLICATIONS” (Cura Therapeutics, LLC, priority 2018, published 2021).
Several values for one entry are separate records, joined by “and”; a condition that tells them apart may be missing. Equal values may be shown once. Read-outs that look alike come from different tables or passages of the source.

How the values were obtained:
[1] = format: in vitro ADME, human; conditions: for Mean Height / % Remaining: human, 1 μM; for % Remaining: plasma
Experimental: Compound B1 was spiked directly into an individual lot of fresh human plasma, with sodium heparin as the anticoagulant, such that the final assay concentration of the compound was 1.00 μM. After incubation at room temperature for 0, 0.5, 1, 2, and 4 hours, samples were removed and aliquoted for analysis. Valacyclovir was used as a positive control. The plasma samples containing a test compound were processed by protein precipitation.
A primary 0.500 mM stock solution of compound B1 was prepared in either acetonitrile or acetonitrile:water (1:1, v/v). A 0.200 mM working stock was made from the primary stock in acetonitrile:water (1:1, v/v), which was used in the human plasma stability study. The primary and working stock solutions were stored at −20° C. when not in use. When it was used in the assay, the working stock was kept at room temperature for as short a time as possible.
The human plasma stability study was initiated by adding 5.00 μL of compound B1 stock solution to 0.995 mL of human plasma (sodium heparin) in a 1.7-mL snap tube. Time zero points were generated by immediately removing duplicate 50.0 μL aliquots of plasma after initiating each incubation and quenching in 150 μL of methanol. The plasma incubation tubes were capped and remained at room temperature between time points.
After 0.5, 1, 2, and 4 hours of incubation, duplicate 50.0 μL aliquots of plasma were removed and placed into the extraction tubes containing 150 μL of methanol. Each time point was immediately extracted by vortex mixing, centrifuged and the supernate removed to HPLC vial for analysis. After extraction of all samples, the extracts were analyzed by LC/MS/MS.
LC/MS/MS analysis of the incubation solutions was conducted by initial separation of the test compound peak using chromatography prior to detection by the mass spectrometer. The LC/MS system was comprised of a HPLC coupled with a TQS-Micro or Quattro Premier. The mobile phase was nebulized using heated nitrogen in a Z-spray source/interface set to electrospray in either positive ionization mode or negative ionization mode. The ionized compounds were detected using MS/MS. The data was acquired using MassLynx.

[2] = Compound concentration in the CSF of rats; format: in vivo
Experimental: Compound B1 in the CSF of the rats was also analyzed. The results are shown in Table 4 below wherein BQL stands for below the quantifiable limit of 2.0 ng/mL.

[3] = Pharmacokinetic study in rats; format: in vivo
Experimental: A pharmacokinetic study on compound B1 was carried out in rats.

O=C(O)c1ccc(NC(=O)[C@@H]2CCC[C@H](C(=O)Nc3ccc(C(=O)O)cc3)C2)cc1 [B1, 4,4′-(((1R,3S)-cyclohexane-1,3-dicarbonyl)bis(azanediyl))dibenzoic acid]
Metabolism in fresh human plasma [1]: not significantly metabolized | Mean Height ([1]; 0 h): 9,610 | Mean Height ([1]; 0.5 h): 9,430 | Mean Height ([1]; 1 h): 9,330 | Mean Height ([1]; 2 h): 9,610 | Mean Height ([1]; 4 h): 9,000 | % Remaining ([1]; 0 h): 100% | % Remaining ([1]; 0.5 h): 98.1% | % Remaining ([1]; 1 h): 97.1% | % Remaining ([1]; 2 h): 100% | % Remaining ([1]; 4 h): 93.7% | CSF Concentration ([2]; IV, 0.00 h, individual animals): BQL (below the quantifiable limit of 2.0 ng/mL) | CSF Concentration ([2]; IV, 0.5 h, individual animals): 26 ng/mL and 17 ng/mL and 36 ng/mL | CSF Concentration ([2]; IV, 1.0 h, individual animals): 51 ng/mL and 391 ng/mL and 17 ng/mL | CSF Concentration ([2]; IV, 2.0 h, individual animals): 33 ng/mL and 27 ng/mL | CSF Concentration ([2]; IV, 4.0 h, individual animals): 10 ng/mL and 21 ng/mL and 4.5 ng/mL | CSF Concentration ([2]; IV, 8.0 h, individual animals): 1.8 ng/mL | CSF Concentration ([2]; IV, 12 h, individual animals): BQL (below the quantifiable limit of 2.0 ng/mL) | CSF Concentration ([2]; PO, 0.00 h, individual animals): BQL (below the quantifiable limit of 2.0 ng/mL) | CSF Concentration ([2]; PO, 0.5 h, individual animals): BQL (below the quantifiable limit of 2.0 ng/mL) | CSF Concentration ([2]; PO, 1.0 h, individual animals): BQL (below the quantifiable limit of 2.0 ng/mL) | CSF Concentration ([2]; PO, 2.0 h, individual animals): BQL (below the quantifiable limit of 2.0 ng/mL) | CSF Concentration ([2]; PO, 4.0 h, individual animals): BQL (below the quantifiable limit of 2.0 ng/mL) | CSF Concentration ([2]; PO, 8.0 h, individual animals): BQL (below the quantifiable limit of 2.0 ng/mL) | CSF Concentration ([2]; PO, 12 h, individual animals): BQL (below the quantifiable limit of 2.0 ng/mL) | concentration at 0.5 h ([2]; rat, CSF, iv, 0.5 h, mean): 27 ng/mL | concentration at 1 h ([2]; rat, CSF, iv, 1.0 h, mean): 153 ng/mL | concentration at 2 h ([2]; rat, CSF, iv, 2.0 h, individual animals, read-out: CSF Concentration): 17 ng/mL | concentration at 2 h ([2]; rat, CSF, iv, 2.0 h, mean, read-out: CSF Concentration, Mean): 26 ng/mL | concentration at 4 h ([2]; rat, CSF, iv, 4.0 h, mean): 12 ng/mL | concentration at 8 h ([2]; rat, CSF, iv, 8.0 h, individual animals, read-out: CSF Concentration): 1.2 ng/mL | concentration at 8 h ([2]; rat, CSF, iv, 8.0 h, mean, read-out: CSF Concentration, Mean): 1.5 ng/mL | concentration at 2 h ([2]; rat, CSF, po, 10 mg/kg, PO, 2.0 h, individual animals, read-out: CSF Concentration): 4.6 ng/mL | concentration at 2 h ([2]; rat, CSF, po, 10 mg/kg, PO, 2.0 h, mean (N=1), read-out: CSF Concentration, Mean): 4.6 ng/mL | AUCINF/Dose ([3]; IV): 2950 | CL or CL/F ([3]; IV): 4.8 mL/min/kg | HL ([3]; IV): 1.9 h | AUCINF/Dose ([3]; PO): 43 | HL ([3]; PO): 14 h | AUC(0-inf) ([3]; rat, in vivo, 1 mg/kg, IV): 2950 ng·h/mL | AUC(0-t) ([3]; rat, in vivo, 1 mg/kg, IV): 2950 ng·h/mL | Cmax ([3]; rat, in vivo, 1 mg/kg, IV): 3980 ng/mL | AUC(0-inf) ([3]; rat, in vivo, 10 mg/kg, PO): 431 ng·h/mL | AUC(0-t) ([3]; rat, in vivo, 10 mg/kg, PO): 267 ng·h/mL | Cmax ([3]; rat, in vivo, 10 mg/kg, PO): 29 ng/mL | Tmax ([3]; rat, in vivo, 10 mg/kg, PO): 2 h | bioavailability ([3]; rat, in vivo, 10 mg/kg, PO): 1.25% | CL/F ([3]; rat, in vivo, 10 mg/kg, PO, read-out: CL or CL/F): 387 mL/min/kg

CC(C)[C@H](N)C(=O)OCCOCn1cnc2c(=O)[nH]c(N)nc21 [Valacyclovir, reference compound]
Mean Height ([1]; 0 h): 21,400 | Mean Height ([1]; 0.5 h): 20,700 | Mean Height ([1]; 1 h): 20,500 | Mean Height ([1]; 2 h): 19,800 | Mean Height ([1]; 4 h): 17,700 | % Remaining ([1]; 0 h): 100% | % Remaining ([1]; 0.5 h): 96.7% | % Remaining ([1]; 1 h): 95.8% | % Remaining ([1]; 2 h): 92.5% | % Remaining ([1]; 4 h): 82.7%
